# Experimental data taken from ChEMBL document CHEMBL5053510, “Discovery of AS-1763: A Potent, Selective, Noncovalent, and Orally Available Inhibitor of Bruton's Tyrosine Kinase” (J Med Chem, 2021).
# The source made the active and inactive calls. The rule behind the calls is not given here.
# Columns and labels:
# [1] = tested on: OCI-Ly10; experiment: Antitumor activity against human OCILY10 cells in SCID mouse assessed as tumor growth inhibition at 60 mg/kg, po bid measured after 63 days; assay type: functional; conditions: OCI-Ly10, 1512 h, time 63 day, read-out: TGI
# [2] = Clearence in rat at 2 mg/kg, iv; assay type: ADME, organism-based; conditions: in vivo
# [3] = target: T1, Tyrosine-protein kinase BTK (Homo sapiens, UniProt Q06187); experiment: Inhibition of human full-length BTK (2 to 659 residues) expressed in baculovirus expression system at 0.3 uM by mobility shift assay
# [4] = Oral bioavailability in mouse at 15 mg/kg; assay type: ADME, organism-based; conditions: in vivo
# [5] = tested on: OCI-Ly10; experiment: Antitumor activity against human ibrutinib-resistant BTK[C481S] knock-in OCILY10 cells in SCID mouse assessed as tumor growth inhibition at 60 mg/kg, po bid measured after 63 days; assay type: functional; conditions: OCI-Ly10, 1512 h, time 63 day, read-out: TGI
# [6] = target: Tyrosine-protein kinase BTK (Mus musculus) (UniProt P35991); experiment: Inhibition of BTK in […] mouse blood assessed as reduction in BTK phosphorylation at Tyr223 residue at 30 mg/kg, po measured after 8 hrs; assay type: organism-based
# [7] = Half life in dog at 5 mg/kg, po; assay type: ADME, organism-based, Canis lupus familiaris; conditions: in vivo
# [8] = tested on: OCI-Ly10; experiment: Antitumor activity against human OCILY10 cells xenografted in SCID mouse assessed as tumor growth inhibition at 6 mg/kg, po bid measured after 63 days; assay type: functional; conditions: OCI-Ly10, 1512 h, time 63 day, read-out: TGI
# [9] = target: T1, Tyrosine-protein kinase BTK; experiment: Inhibition of human BTK-A using phosphorylated substrate in presence of ATP by microplate reader assay
# [10] = Plasma protein binding in rat; assay type: ADME, cell-free; conditions: read-out: PPB (converted)
# [11] = Oral bioavailability in dog at 5 mg/kg; assay type: ADME, organism-based, Canis lupus familiaris; conditions: in vivo
# [12] = target: Cytochrome P450 2C9 (Homo sapiens, UniProt P11712); experiment: Inhibition of CYP2C9 (unknown origin); assay type: ADME
# [13] = target: Tyrosine-protein kinase Tec (Homo sapiens, UniProt P42680); experiment: Inhibition of human TEC (359 - 631 residues) expressed in baculovirus expression system by mobility shift assay
# [14] = target: Epithelial discoidin domain-containing receptor 1 (Homo sapiens, UniProt Q08345); experiment: Inhibition of human DDR1 (444 - 876 residues) expressed in baculovirus expression system by mobility shift assay
# [15] = Half life in mouse at 15 mg/kg, po; assay type: ADME, organism-based; conditions: in vivo
# [16] = Metabolic stability in dog hepatocytes assessed as Intrinsic clearance; assay type: ADME, cell-based, Canis lupus familiaris, Hepatocyte
# [17] = AUC (0 to last) in rat at 2 mg/kg, iv; assay type: ADME, organism-based; parameters: time 0 - last, dose 2 mg/kg, route iv; conditions: in vivo
# [18] = target: Tyrosine-protein kinase ITK/TSK (Homo sapiens) (UniProt Q08881); experiment: Inhibition of human ITK (2 - 620 residues) expressed in baculovirus expression system at 0.3 uM by mobility shift assay
# [19] = Plasma protein binding in human; assay type: ADME, cell-free; conditions: read-out: PPB (converted)
# [20] = Metabolic stability in mouse hepatocytes assessed as Intrinsic clearance; assay type: ADME, cell-based, Hepatocyte
# [21] = Volume of distribution at steady state in dog at 2 mg/kg, iv; assay type: ADME, organism-based, Canis lupus familiaris; conditions: in vivo, read-out: Vdss
# [22] = Oral bioavailability in rat at 15 mg/kg; assay type: ADME, organism-based; conditions: in vivo
# [23] = MRT (0 to last) in mouse at 2 mg/kg, iv; assay type: ADME, organism-based; conditions: in vivo
# [24] = Initial plasma concentration in mouse at 2 mg/kg, iv; assay type: ADME, organism-based
# [25] = Half life in rat at 15 mg/kg, po; assay type: ADME, organism-based; conditions: in vivo
# [26] = target: Tyrosine-protein kinase ITK/TSK (Homo sapiens, UniProt Q08881); experiment: Inhibition of human ITK (2 - 620 residues) expressed in baculovirus expression system by mobility shift assay
# [27] = AUC (0 to last) in dog at 1 mg/kg, iv; assay type: ADME, organism-based, Canis lupus familiaris; parameters: time 0 - last, dose 1 mg/kg, route iv; conditions: in vivo
# [28] = Initial plasma concentration in dog at 5 mg/kg, po; assay type: ADME, organism-based, Canis lupus familiaris; conditions: in vivo
# [29] = tested on: Tyrosine-protein kinase BTK (Homo sapiens), Q06187 [C481S]; experiment: Inhibition of human full-length BTK C481S mutant (2 to 659 residues) expressed in baculovirus expression system at 0.3 uM by mobility shift assay
# [30] = Metabolic stability in rat hepatocytes assessed as Intrinsic clearance; assay type: ADME, cell-based, Hepatocyte
# [31] = target: Tyrosine-protein kinase BTK (Mus musculus) (UniProt P35991); experiment: Inhibition of BTK in […] mouse blood assessed as reduction in BTK phosphorylation at Tyr223 residue at 15 mg/kg, po measured after 8 hrs; assay type: organism-based
# [32] = organism: Mus musculus; experiment: Toxicity in SCID mouse harboring human OCILY10 cells harboring BTK C481S mutant […] gene assessed as body weight loss; assay type: organism-based
# [33] = target: Voltage-gated inwardly rectifying potassium channel KCNH2 (Homo sapiens, UniProt Q12809); experiment: Inhibition of human ERG
# [34] = AUC (0 to last) in rat at 15 mg/kg, po; assay type: ADME, organism-based; parameters: time 0 - last, dose 15 mg/kg, route po; conditions: in vivo
# [35] = AUC (0 to last) in mouse at 15 mg/kg, po; assay type: ADME, organism-based; parameters: time 0 - last, dose 15 mg/kg, route po; conditions: in vivo
# [36] = tested on: Proto-oncogene tyrosine-protein kinase receptor Ret (Homo sapiens), P07949 [S891A]; experiment: Inhibition of human RET S891A mutant (658 - 1114) expressed in baculovirus expression system at 0.3 uM by mobility shift assay
# [37] = MRT (0 to last) in rat at 2 mg/kg, iv; assay type: ADME, organism-based; conditions: in vivo
# [38] = Metabolic stability in human hepatocytes assessed as Intrinsic clearance; assay type: ADME, cell-based, Hepatocyte
# [39] = Clearence in mouse at 2 mg/kg, iv; assay type: ADME, organism-based; conditions: in vivo
# [40] = AUC (0 to last) in mouse at 2 mg/kg, iv; assay type: ADME, organism-based; parameters: time 0 - last, dose 2 mg/kg, route iv; conditions: in vivo
# [41] = MRT (0 to last) in dog at 5 mg/kg, po; assay type: ADME, organism-based, Canis lupus familiaris; conditions: in vivo
# Sequence of Tyrosine-protein kinase BTK (Mus musculus) (P35991 whole entry): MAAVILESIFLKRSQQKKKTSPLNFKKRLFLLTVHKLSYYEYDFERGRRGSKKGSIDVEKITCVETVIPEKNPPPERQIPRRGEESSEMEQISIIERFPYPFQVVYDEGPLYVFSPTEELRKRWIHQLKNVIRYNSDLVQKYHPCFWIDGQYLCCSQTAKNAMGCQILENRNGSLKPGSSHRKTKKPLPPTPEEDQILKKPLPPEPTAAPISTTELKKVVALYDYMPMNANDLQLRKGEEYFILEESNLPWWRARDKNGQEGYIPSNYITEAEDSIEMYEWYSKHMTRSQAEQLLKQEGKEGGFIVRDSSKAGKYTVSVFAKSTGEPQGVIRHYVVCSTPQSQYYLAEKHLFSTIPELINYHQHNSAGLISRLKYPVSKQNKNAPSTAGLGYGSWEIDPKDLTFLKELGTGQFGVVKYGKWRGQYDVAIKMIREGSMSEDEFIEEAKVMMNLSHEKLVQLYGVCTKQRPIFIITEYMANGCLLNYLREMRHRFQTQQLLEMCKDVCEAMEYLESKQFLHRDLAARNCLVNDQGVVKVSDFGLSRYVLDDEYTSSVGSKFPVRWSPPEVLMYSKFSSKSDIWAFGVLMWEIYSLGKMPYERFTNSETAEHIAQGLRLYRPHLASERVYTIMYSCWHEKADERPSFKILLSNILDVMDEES
# T1 sequence (Q06187 whole entry, the tested form may be a part): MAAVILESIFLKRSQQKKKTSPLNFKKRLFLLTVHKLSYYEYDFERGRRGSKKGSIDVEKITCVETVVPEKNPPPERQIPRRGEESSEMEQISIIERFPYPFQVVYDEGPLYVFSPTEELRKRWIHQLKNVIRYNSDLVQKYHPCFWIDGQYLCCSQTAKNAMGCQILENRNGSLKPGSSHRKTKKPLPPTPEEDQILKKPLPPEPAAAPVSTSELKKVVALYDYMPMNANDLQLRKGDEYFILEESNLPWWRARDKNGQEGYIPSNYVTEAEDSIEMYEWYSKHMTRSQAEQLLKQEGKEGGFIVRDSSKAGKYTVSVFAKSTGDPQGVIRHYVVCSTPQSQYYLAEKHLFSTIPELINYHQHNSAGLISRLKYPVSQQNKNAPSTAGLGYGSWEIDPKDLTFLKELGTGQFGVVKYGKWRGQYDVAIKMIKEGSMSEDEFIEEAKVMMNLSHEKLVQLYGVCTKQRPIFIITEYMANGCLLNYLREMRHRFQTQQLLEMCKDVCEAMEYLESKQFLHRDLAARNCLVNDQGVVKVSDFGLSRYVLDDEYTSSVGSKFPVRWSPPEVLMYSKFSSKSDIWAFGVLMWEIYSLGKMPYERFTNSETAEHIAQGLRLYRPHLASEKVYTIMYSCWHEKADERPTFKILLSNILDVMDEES
# Sequence of Cytochrome P450 2C9 (P11712 whole entry, the tested form may be a part): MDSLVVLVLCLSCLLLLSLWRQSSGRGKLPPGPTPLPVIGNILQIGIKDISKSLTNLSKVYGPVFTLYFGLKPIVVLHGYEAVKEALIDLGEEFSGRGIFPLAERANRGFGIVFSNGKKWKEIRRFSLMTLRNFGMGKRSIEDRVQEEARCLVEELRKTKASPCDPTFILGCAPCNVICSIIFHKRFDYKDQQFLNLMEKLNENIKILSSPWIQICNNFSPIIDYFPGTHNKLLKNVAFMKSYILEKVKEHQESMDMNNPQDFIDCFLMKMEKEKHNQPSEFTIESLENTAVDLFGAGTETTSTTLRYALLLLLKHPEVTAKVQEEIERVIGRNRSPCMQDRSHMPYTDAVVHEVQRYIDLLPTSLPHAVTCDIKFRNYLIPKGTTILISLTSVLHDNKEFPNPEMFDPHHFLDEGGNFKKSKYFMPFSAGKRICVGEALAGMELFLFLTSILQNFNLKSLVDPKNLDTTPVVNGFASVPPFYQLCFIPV
# Sequence of Voltage-gated inwardly rectifying potassium channel KCNH2 (Q12809 whole entry): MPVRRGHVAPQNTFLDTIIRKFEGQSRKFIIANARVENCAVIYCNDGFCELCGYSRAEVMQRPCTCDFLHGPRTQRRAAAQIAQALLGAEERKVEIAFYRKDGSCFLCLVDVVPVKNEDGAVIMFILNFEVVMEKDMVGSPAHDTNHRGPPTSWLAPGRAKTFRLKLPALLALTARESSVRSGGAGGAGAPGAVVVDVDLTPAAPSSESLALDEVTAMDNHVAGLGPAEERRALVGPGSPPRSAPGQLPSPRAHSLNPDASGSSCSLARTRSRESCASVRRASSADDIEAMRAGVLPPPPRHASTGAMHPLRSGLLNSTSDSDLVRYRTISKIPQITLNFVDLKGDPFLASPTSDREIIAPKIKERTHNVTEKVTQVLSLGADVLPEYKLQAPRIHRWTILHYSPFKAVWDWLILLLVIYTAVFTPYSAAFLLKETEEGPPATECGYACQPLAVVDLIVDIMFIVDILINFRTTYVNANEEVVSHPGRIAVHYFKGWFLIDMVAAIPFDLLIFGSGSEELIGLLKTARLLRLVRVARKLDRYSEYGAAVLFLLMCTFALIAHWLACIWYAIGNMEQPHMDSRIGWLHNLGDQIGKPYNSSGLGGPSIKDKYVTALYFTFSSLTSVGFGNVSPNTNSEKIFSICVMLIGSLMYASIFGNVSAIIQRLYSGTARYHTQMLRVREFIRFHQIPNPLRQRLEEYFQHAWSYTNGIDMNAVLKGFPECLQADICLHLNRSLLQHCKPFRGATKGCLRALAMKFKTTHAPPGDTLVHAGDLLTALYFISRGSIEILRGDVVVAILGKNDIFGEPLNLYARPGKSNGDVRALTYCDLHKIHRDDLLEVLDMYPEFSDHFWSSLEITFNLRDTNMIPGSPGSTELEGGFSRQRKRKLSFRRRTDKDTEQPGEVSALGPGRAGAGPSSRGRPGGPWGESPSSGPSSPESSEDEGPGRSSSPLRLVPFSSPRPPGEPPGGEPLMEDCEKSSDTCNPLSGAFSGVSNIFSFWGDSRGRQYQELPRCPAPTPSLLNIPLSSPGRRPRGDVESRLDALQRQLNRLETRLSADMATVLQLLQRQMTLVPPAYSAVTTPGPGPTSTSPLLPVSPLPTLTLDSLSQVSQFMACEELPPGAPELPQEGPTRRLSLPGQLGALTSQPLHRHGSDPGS
# Sequence of Tyrosine-protein kinase Tec (P42680 whole entry, the tested form may be a part): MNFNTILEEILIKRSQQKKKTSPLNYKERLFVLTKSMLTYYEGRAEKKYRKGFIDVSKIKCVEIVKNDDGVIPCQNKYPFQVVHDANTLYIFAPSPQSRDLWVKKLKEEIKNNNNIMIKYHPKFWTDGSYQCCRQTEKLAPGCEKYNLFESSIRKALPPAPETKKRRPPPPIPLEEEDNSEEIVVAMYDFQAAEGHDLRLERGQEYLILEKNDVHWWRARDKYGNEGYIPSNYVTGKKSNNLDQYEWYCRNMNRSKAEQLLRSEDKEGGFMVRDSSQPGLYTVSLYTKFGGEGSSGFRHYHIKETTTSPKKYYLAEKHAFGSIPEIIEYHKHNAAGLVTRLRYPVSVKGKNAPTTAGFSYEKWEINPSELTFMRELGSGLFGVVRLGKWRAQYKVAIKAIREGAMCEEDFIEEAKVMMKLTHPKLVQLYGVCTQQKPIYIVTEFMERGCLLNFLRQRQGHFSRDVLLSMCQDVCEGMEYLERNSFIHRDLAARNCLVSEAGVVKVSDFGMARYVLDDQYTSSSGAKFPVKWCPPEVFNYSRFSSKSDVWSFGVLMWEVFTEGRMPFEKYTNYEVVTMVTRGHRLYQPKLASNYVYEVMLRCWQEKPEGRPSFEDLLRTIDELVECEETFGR
# Sequence of Tyrosine-protein kinase BTK (Homo sapiens), Q06187 [C481S] (Q06187 whole entry C481S, the tested form may be a part): as the sequence (Q06187 whole entry, the tested form may be a part) above, with C481S counted along it
# Sequence of Proto-oncogene tyrosine-protein kinase receptor Ret (Homo sapiens), P07949 [S891A] (P07949 whole entry S891A): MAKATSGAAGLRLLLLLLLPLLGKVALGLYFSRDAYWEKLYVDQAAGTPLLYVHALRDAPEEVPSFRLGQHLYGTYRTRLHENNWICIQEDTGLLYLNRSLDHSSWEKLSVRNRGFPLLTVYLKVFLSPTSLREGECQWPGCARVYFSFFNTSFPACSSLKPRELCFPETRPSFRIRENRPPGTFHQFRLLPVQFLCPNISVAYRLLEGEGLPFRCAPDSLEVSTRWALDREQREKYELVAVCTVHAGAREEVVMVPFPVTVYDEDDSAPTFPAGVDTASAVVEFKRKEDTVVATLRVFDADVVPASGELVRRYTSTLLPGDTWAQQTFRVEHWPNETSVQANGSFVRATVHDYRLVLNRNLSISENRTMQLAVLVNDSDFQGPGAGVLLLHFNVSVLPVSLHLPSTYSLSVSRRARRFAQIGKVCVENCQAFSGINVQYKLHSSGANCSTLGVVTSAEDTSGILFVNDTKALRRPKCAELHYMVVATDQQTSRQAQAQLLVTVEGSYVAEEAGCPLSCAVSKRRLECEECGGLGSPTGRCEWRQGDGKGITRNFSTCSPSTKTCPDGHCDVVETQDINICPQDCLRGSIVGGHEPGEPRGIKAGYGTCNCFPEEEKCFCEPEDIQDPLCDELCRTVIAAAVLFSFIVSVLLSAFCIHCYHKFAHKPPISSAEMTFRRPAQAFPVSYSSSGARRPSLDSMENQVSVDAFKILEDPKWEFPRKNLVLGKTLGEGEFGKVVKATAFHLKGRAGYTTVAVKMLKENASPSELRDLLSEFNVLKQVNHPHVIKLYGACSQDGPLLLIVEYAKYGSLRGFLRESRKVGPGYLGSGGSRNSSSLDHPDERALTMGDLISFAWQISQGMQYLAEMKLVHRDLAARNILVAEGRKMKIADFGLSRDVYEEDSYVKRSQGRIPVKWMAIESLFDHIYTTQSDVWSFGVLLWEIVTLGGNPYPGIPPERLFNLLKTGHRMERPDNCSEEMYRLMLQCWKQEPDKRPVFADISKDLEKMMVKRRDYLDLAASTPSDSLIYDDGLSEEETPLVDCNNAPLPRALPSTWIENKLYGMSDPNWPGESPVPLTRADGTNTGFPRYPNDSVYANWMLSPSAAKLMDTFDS
structure (smiles),measurement,setting,value
Nc1nc(-c2cccc(-n3ccc4cc(C5CC5)cc(F)c4c3=O)c2CO)c2cc(C3=CCN(C4COC4)CC3)[nH]c2n1 [MILREBRUTINIB],inhibition in vivo at 60 mg/kg,[1],112%
same,clearance,[2],20.3 mL/min/kg
same,inhibition,[3],99.4%
same,bioavailability,[4],60.8%
same,inhibition in vivo at 60 mg/kg,[5],73%
same,inhibition,[6],Active
same,half-life,[7],1.9 h
same,inhibition in vivo at 6 mg/kg,[8],74.5%
same,IC50,[9],0.85 nM
same,fraction unbound,[10],0.012
same,bioavailability,[11],68.1%
same,IC50,[12],5380 nM
same,IC50,[13],1.34 nM
same,IC50,[14],221 nM
same,half-life,[15],2.25 h
same,CLH,[16],1.28 mL/min/g
same,AUC(0-t),[17],1650 ng·h/mL
same,inhibition,[18],78.8%
same,fraction unbound,[19],0.02
same,CLH,[20],2.11 mL/min/g
same,Vd,[21],1.77 L/kg
same,bioavailability,[22],15.9%
same,MRT last,[23],1.36 h
same,C0,[24],972 ng/mL
same,half-life,[25],3.56 h
same,IC50,[26],60.9 nM
same,AUC(0-t),[27],734 ng·h/mL
same,C0,[28],896 ng/mL
same,inhibition,[29],99.8%
same,CLH,[30],2.04 mL/min/g
same,inhibition,[31],Active
same,Activity,[32],Non-Toxic
same,IC50,[33],8540 nM
same,AUC(0-t),[34],1870 ng·h/mL
same,AUC(0-t),[35],8060 ng·h/mL
same,inhibition,[36],67%
same,MRT last,[37],2.92 h
same,CLH,[38],0.76 mL/min/g
same,clearance,[39],18.8 mL/min/kg
same,AUC(0-t),[40],1750 ng·h/mL
same,MRT last,[41],2.3 h
